From ChEMBL document CHEMBL5528023, “Discovery of a CB2 and 5-HT1A receptor dual agonist for the treatment of depression and anxiety” (Eur J Med Chem, 2024)
pEC50, pIC50: −log10 of the molar value. Converted amounts (≈) assume the structure as drawn.

Tests used:
[1] = biological target: T1, 5-hydroxytryptamine receptor 1A (Homo sapiens) (UniProt P08908); test: Agonist activity at human 5HT1A receptor expressed in HEK293 cells assessed as forskolin-stimulated cAMP formation preincubated with compound for 10 mins followed by forskolin induction and measured after 30 mins by HTRF analysis relative to control; format: functional, cell-based; conditions: filed as agonist, time 40.0 min
T1 sequence (whole entry): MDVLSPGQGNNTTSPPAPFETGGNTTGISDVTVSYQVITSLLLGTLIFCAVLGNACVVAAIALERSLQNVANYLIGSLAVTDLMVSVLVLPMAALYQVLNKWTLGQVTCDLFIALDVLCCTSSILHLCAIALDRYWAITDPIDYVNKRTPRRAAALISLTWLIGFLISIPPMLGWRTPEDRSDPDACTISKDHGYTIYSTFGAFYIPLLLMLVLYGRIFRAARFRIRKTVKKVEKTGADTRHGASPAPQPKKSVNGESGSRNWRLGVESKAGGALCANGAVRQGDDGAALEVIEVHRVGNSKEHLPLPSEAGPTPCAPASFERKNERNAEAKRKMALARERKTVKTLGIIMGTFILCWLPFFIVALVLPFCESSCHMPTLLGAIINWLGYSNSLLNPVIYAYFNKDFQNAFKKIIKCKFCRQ

[2] = Solubility of compound in phosphate buffer at pH 6.8 by HPLC analysis; format: physicochemical
[3] = biological target: T2, 5-hydroxytryptamine receptor 1A (Homo sapiens, UniProt P08908); test: Agonist activity at human 5HT1A receptor expressed in HEK293 cells assessed as forskolin-stimulated cAMP formation preincubated with compound for 10 mins followed by forskolin induction and measured after 30 mins by HTRF analysis; format: functional, cell-based
T2 sequence (P08908 whole entry): T1 sequence (whole entry)

[4] = Cmax in ICR mouse brain at 25 mg/kg, po measured upto 8 hrs by LC-MS/MS analysis; format: ADME, organism-based
[5] = Cmax in ICR mouse at 25 mg/kg, po measured upto 8 hrs by LC-MS/MS analysis; format: ADME, organism-based; conditions: in vivo
[6] = AUClast in ICR mouse at 25 mg/kg, po measured upto 8 hrs by LC-MS/MS analysis; format: ADME, organism-based; conditions: in vivo
Cannabinoid receptor 1 [7] = biological target: T3, Cannabinoid receptor 1 (Homo sapiens, UniProt P21554); test: Antagonist activity at human CB1 receptor expressed in CHO cells assessed as inhibition of forskolin-stimulated cAMP formation by measuring maximum inhibition preincubated with compound for 10 mins followed by forskolin induction and measured after 30 mins by HTRF analysis relative to control; format: functional, cell-based; conditions: filed as antagonist, time 40.0 min
T3 sequence (P21554 whole entry): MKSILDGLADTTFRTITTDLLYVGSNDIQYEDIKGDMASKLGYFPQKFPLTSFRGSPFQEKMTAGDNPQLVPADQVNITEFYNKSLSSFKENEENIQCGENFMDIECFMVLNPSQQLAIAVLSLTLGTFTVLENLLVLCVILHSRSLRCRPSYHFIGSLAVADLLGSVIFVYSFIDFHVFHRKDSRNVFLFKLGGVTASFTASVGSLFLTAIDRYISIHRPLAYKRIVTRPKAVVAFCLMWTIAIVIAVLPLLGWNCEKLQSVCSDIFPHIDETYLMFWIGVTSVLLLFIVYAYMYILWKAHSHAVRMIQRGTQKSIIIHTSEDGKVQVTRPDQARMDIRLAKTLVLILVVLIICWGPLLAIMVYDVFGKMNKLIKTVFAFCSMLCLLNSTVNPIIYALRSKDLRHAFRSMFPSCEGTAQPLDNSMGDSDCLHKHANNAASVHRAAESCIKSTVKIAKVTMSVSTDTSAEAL

[8] = Tmax in ICR mouse at 25 mg/kg, po measured upto 8 hrs by LC-MS/MS analysis; format: ADME, organism-based; conditions: in vivo
[9] = Half life in ICR mouse at 25 mg/kg, po measured upto 8 hrs by LC-MS/MS analysis; format: ADME, organism-based; conditions: in vivo
Cannabinoid receptor 1 [10] = biological target: T3, Cannabinoid receptor 1; test: Antagonist activity at human CB1 receptor expressed in CHO cells assessed as inhibition of forskolin-stimulated cAMP formation preincubated with compound for 10 mins followed by forskolin induction and measured after 30 mins by HTRF analysis; format: functional, cell-based
Cannabinoid receptor 2 [11] = biological target: T4, Cannabinoid receptor 2 (Homo sapiens, UniProt P34972); test: Partial agonist activity at human CB2 receptor expressed in CHO cells assessed as forskolin-stimulated cAMP formation preincubated with compound for 10 mins followed by forskolin induction and measured after 30 mins by HTRF analysis relative to control; format: functional, cell-based; conditions: filed as partial agonist, time 40.0 min
T4 sequence (P34972 whole entry): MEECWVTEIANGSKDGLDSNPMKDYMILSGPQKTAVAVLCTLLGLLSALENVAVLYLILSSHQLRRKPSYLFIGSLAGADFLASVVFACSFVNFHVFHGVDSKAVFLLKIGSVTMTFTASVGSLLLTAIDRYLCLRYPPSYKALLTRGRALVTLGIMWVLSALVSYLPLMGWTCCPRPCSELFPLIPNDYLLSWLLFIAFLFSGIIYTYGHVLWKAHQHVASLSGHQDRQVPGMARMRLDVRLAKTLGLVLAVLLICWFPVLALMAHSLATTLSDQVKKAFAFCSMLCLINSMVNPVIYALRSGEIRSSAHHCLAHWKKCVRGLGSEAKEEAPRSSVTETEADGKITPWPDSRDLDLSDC

Cannabinoid receptor 2 [12] = biological target: T4, Cannabinoid receptor 2; test: Partial agonist activity at human CB2 receptor expressed in CHO cells assessed as forskolin-stimulated cAMP formation preincubated with compound for 10 mins followed by forskolin induction and measured after 30 mins by HTRF analysis; format: functional, cell-based
Cannabinoid receptor 2 [13] = biological target: T4, Cannabinoid receptor 2; test: Agonist activity at human CB2 receptor expressed in CHO cells assessed as forskolin-stimulated cAMP formation preincubated with compound for 10 mins followed by forskolin induction and measured after 30 mins by HTRF analysis; format: functional, cell-based

Compound	Imax (Cannabinoid receptor 1 [7])	pIC50 (Cannabinoid receptor 1 [10])	pEC50 (Cannabinoid receptor 2 [13])	also measured
C=C(C)[C@@H]1CCC(C)=C[C@H]1c1c(O)cc(CCCCC)cc1O [CANNABIDIOL]	88.3%	–	–	Emax [1]: 64%; solubility [2]: 0.04 µg/mL (≈ 0.127 µM); pEC50 [3]: 5.38; Cmax [4]: 239 ng/g; Cmax [5]: 145 ng/mL; AUC(0-t) at 8 h [6]: 289 ng·h/mL; Tmax [8]: 42 min; half-life [9]: 258 min
C=C(C)[C@@H]1CCC(C)=C[C@H]1c1c(O)cc(C(=O)CCCC)cc1O	82.9%	5.00	–	Emax (Cannabinoid receptor 2 [11]): 75.7%; pEC50 (Cannabinoid receptor 2 [12]): 5.33
C=C(C)[C@@H]1CCC(C)=C[C@H]1c1c(O)cc(C)cc1O	115%	5.20	< 5.00	–
C=C(C)[C@@H]1CCC(C)=C[C@H]1c1c(O)cc(C2(CCCC)CC2)c(C(=O)N(C)C)c1O	87.2%	5.57	–	Cmax [5]: 62.7 ng/mL; AUC(0-t) at 8 h [6]: 115 ng·h/mL; Emax (Cannabinoid receptor 2 [11]): 47.2%; Tmax [8]: 42 min; half-life [9]: 102 min; pEC50 (Cannabinoid receptor 2 [12]): 6.12
C=C(C)[C@@H]1CCC(C)=C[C@H]1c1c(O)cc(-c2ccccc2)cc1O	–	< 5.00	< 8.00	–
C=C(C)[C@@H]1CCC(C)=C[C@H]1c1c(O)cc(C(C)(C)CCCC)c(C(=O)NC)c1O	104%	5.36	< 5.00	–
C=C(C)[C@@H]1CCC(C)=C[C@H]1c1c(O)cc(-c2ccccn2)cc1O	92.1%	5.20	< 8.00	–
C=C(C)[C@@H]1CCC(C)=C[C@H]1c1c(O)cc(CCCCC)c(C(=O)NC)c1O	75.3%	5.59	< 8.00	solubility [2]: 0.7 µg/mL (≈ 1.88 µM)
C=C(C)[C@@H]1CCC(C)=C[C@H]1c1c(O)cc(CCCCC)c(C(=O)NCCCCC)c1O	–	< 5.00	< 8.00	–
C=C(C)[C@@H]1CCC(C)=C[C@H]1c1c(O)cc(CCCCC)c(C(=O)NC2CC2)c1O	88.9%	5.64	< 8.00	–
C=Cc1cc(O)c([C@@H]2C=C(C)CC[C@H]2C(=C)C)c(O)c1	83.3%	5.19	< 8.00	–
C=C(C)[C@@H]1CCC(C)=C[C@H]1c1c(O)cc(C#CC)cc1O	96.7%	5.48	< 8.00	–
C=C(C)[C@@H]1CCC(C)=C[C@H]1c1ccc(C2CC2)c(C(N)=O)c1O	108%	5.19	–	Cmax [5]: 90.4 ng/mL; AUC(0-t) at 8 h [6]: 170 ng·h/mL; Emax (Cannabinoid receptor 2 [11]): 44.7%; Tmax [8]: 24 min; half-life [9]: 174 min; pEC50 (Cannabinoid receptor 2 [12]): 6.25
